The values below are quoted from earlier work in patent US20020015956A1, “Compositions and methods for the identification, assessment, prevention, and therapy of human cancers” (priority 2000, published 2002).

In the series the test system is tumor. The conditions noted are these: animal models.

Each structure is given as a SMILES string.

As for `CC(=O)O[C@@]12CO[C@@H]1C[C@H](O)[C@@]1(C)C(=O)[C@H](O)C3=C(C)[C@@H](OC(=O)[C@H](O)[C@@H](NC(=O)OC(C)(C)C)c4ccccc4)C[C@@](O)([C@@H](OC(=O)c4ccccc4)[C@H]21)C3(C)C` [Taxotere, docetaxel], the anti-tumor activity result is “good anti-tumor activity”.
